# Source: patent US7648964B2, “Use of lacritin in promoting ocular cell survival” (University of Virginia Patent Foundation, priority 2004, dated 2010)
# “Also recorded” adds a separate entry of the source.
# B1: C-10: deletion of the 10 carboxy terminal amino acids of mature lacritin (SEQ ID NO:10) (protein)
# chain: EDASSDSTGADPAQEAGTSKPNEEISGPAEPASPPETTTTAQETSAAAVQGTAKVTSSRQELNPLKSIVEKSILLTEQALAKAGKGMHGGVPGGKQFIENGSEFAQKLL
# modifications: homo sapiens
# B2: C-20: deletion of the 20 carboxy terminal amino acids of mature lacritin (SEQ ID NO:10) (protein)
# chain: EDASSDSTGADPAQEAGTSKPNEEISGPAEPASPPETTTTAQETSAAAVQGTAKVTSSRQELNPLKSIVEKSILLTEQALAKAGKGMHGGVPGGKQFIE
# modifications: homo sapiens
# B3: C-15: deletion of the 15 carboxy terminal amino acids of mature lacritin (SEQ ID NO:10) (protein)
# chain: EDASSDSTGADPAQEAGTSKPNEEISGPAEPASPPETTTTAQETSAAAVQGTAKVTSSRQELNPLKSIVEKSILLTEQALAKAGKGMHGGVPGGKQFIENGSEF
# modifications: homo sapiens
# Columns and labels:
# PKCα [1] = test: PKCα translocation in HSG cells (immunofluorescence, fractionation); format: cell-based, human; conditions: for effect on lacritin-dependent PKCα translocation: pertussis toxin 100 ng/ml, Go 6976, U73122, U73343, cyclosporine 1 μM, nifedipine 10 μM
# Description: In order to dissect the molecular pathways leading to the cell survival by lacritin, protein kinases and transcriptional factors were studied by Western blotting and immunofluorescence microscopy.
# Images were acquired at 2-3 s intervals using LaserSharp2000 software (Bio-Rad) and store on disc for later analysis.
# PKCα [2] = test: Phospho-PKCα blot of HSG cell lysates; format: cell-based, human; conditions: for effect on lacritin-dependent PKCα dephosphorylation: pertussis toxin 100 ng/ml, Go 6976, U73122, U73343 1 μM
# Experimental: (§1) For phosphotyrosine blotting and mitogenesis assays, cells in serum-containing media were seeded overnight in 24-well plates at a density of 0.5×10^5 cells/mm^2 corresponding to 20-30% confluency after cell attachment, incubated in serum-free media without supplements for 24 h (phosphotyrosine) or washed with serum-free media without supplements three times (mitogenesis) and incubated with lacritin (1-1000 nM), or positive controls EGF (1.6 nM) and 10% fetal bovine serum, or negative controls bovine serum albumin or no additive in serum-free media without supplements for the indicated times (phosphotyrosine) or 30 h (mitogenesis). For phosphotyrosine assays, cells were extracted in 1% NP40 containing sodium vanadate (2 mg/ml), DTT (5 mg/ml), protease inhibitors, 50 mM HEPES, 100 mM NaCl, and 2 mM EDTA; then separated by 10% SDS PAGE, transferred and blotted. The following antibodies (Cell Signaling Technology, Beverly Mass.) were tested: antiphosphotyrosine antibody (P-Tyr-100), anti-phospho-PKC αβII, anti-PKCα, anti-phospho-PKCδ, anti-phospho-PKC (pan), anti-p44/42 MAPK, anti-phospho-Raf, anti-phospho-SAPK/JNK, anti-phospho-p38 Map kinase, anti-phospho-Raf, anti-phospho-Akt, anti-phospho-CaMKII, anti-phospho-MARCKS, or anti-tubulin (loading control). After washing, bound antibodies were detected with peroxidase-labeled secondary antibody and ECL. With the exception of at least nine proteins in the P-Tyr-100 blot (FIG. 1), none of the effectors tested above appeared to be phospho-activated during lacritin signaling (not shown). For mitogenesis (Hussaini et al., '00), [^3H]-thymidine (2 mCi/ml) was added for the next 6 h. Incorporation was stopped with ice-cold phosphate buffered saline and followed by addition of cold and then room temperature trichloracetic acid (10%) for 10 min each, washing of cells with phosphate buffered saline, solubilization with 1 N sodium hydroxide, neutralization with 1 N hydrochloric acid, addition of scintillation fluid and then quantitation in a scintillation counter. To deplete PKCα in HSG cells, a pool of four PKCα-specific siRNAs (100 nM) were transfected via LipofectAMINE 2000 in Opti-MEMI Reduced Serum Medium (Invitrogen, Grand Island N.Y.) without serum and antibiotics according to manufacturer's instructions. Each of the four siRNAs was also individually transfected. In negative controls, cells were transfected with a pool of four lamin-specific siRNAs (Upstate LLC, Charlottesville Va.; Dharmacon Inc, Lafayette Colo.). Seventy-two hours post-transfection, mitogenesis was assessed by co-addition of 10 […] lacritin and [^3H]-thymidine (2 mCi/ml) (Amersham, Piscataway N.J.) for 24 hrs. PKCα depletion was confirmed by Western blotting.
# We imaged PKCα in cells 15 min after treatment (FIG. 8). Nonmitogenic construct/fragment C-25 (10 nM) had no effect, leaving PKCa diffusely distributed throughout the cytoplasm. […] The phosphorylation state of PKCα influences its translocation site. Hyperphosphorylated PKCα becomes associated with the plasma membrane whereas hypophosphorylated or dephosphorylated PKCα is known to translocate to the perinuclear Golgi region. To determine if the latter is true and if so over what time course, we treated cells with lacritin, N-24 and C-25, and then blotted cell lysates for phospho-PKC ? (FIG. 8B). 10 nM lacritin promotes PKC ? dephosphorylation within 1 min of addition. This form is sustained for at least 15 min, but by 30 min has returned to baseline phosphorylation. Dephosphorylation triggered by increasing molar levels of lacritin or N-24 mirrored the proliferation response with optimal dephosphorylation at 10 nM. Non-mitogenic C-25 had no effect, whereas positive control 4β-phorbol 12-myristate 13-acetate-promoted hyperphosphorylation.
# NFATC1 = NFATC1 translocation in HSG cells (immunofluorescence); format: cell-based, human; conditions: cyclosporine 1 μM; nifedipine 10 μM
# Description: In order to dissect the molecular pathways leading to the cell survival by lacritin, protein kinases and transcriptional factors were studied by Western blotting and immunofluorescence microscopy. […] On the other hand, there were increased activities of transcriptional factors such as nuclear factor of activated T-cells (NFAT) and NF-kappaB. In FIG. 4, translocation of PKC alpha and NFAT was detected by immunofluorescence coupled with confocal microscopic imaging. In resting HSG cells (left three images), PKC alpha distributes mainly in cytosol and membrane. Similarly, NFATc1 was also found to localize largely in cytosol. Cellular co-location of PKC alpha and NFATc1 is apparent upon merging the two immunofluorescent images, as the merged cy3 and FITC labels produce distinctive yellow color.
# Images were acquired at 2-3 s intervals using LaserSharp2000 software (Bio-Rad) and store on disc for later analysis. For translocation assays, HSG cells […] phorbol 12-myristate 13-acetate, […], then washed with phosphate-buffered saline, formaldehyde-fixed, blocked with phosphate-buffered saline containing 1% bovine serum albumin and 10% goat serum, incubated with anti-PKCα (C-20) or anti-NFATC1 (mab 7A6) (both from Santa Cruz Biotechnology Inc.; Santa Cruz, Calif.) followed by secondary Cy3-, FITC- or Alexa488-labeled antibodies and confocal microscopic visualization (Bio-Rad Radiance2100).
# HSG cells = test: Calcium mobilization imaging in HSG cells (Fluo-4); format: cell-based, human; conditions: for effect on lacritin-stimulated calcium mobilization: preincubation: pertussis toxin 100 ng/ml, or siRNA
# Experimental: Cells were seeded at 1.4×10^4 HSG cells/mm^2 or 0.7×10^4 HSG cells/mm^2 on Matrigel-coated (100 μg/ml; BD Biosciences; San Diego Calif.) coverslips to respectively achieve 70-80% confluency after overnight or 48 h growth in 6-well plates containing phenol red-free Dulbecco's modified Eagle's medium with 10% fetal calf serum.
# Other cells were incubated (0.7×10^4HSG cells/mm^2 overnight plating) with 100 ng/ml pertussis toxin (Calbiochem; San Diego Calif.) in phenol red-free Dulbecco's modified Eagle's medium with 10% fetal calf serum; or vehicle alone). Cells were washed with calcium-free/phenol red-free Hanks basic salt solution, 20 mM N-2-hydroxyethylpiperazine-N′-2-ethane sulfonic acid and then incubated for 1 h at room temperature with the same solution containing fluo-4 μM at 4 μM (FluoroPure grade [Molecular Probes; Eugene Oreg.] dissolved in DMSO plus 20% Pluronic F-127). Cells were washed three times for 60 min at room temperature with calcium-free/phenol red-free Hanks basic salt solution with 5 mM Ca^2+ or 5 mM EGTA. Temperature was stabilized for 5 min at 37° C. coverslips were placed on the stage of a TE-200 epifluorescent microscope (Bio-Rad Radiance2100 confocal/multiphoton system using Plan Fluor 60×NA 1.4 Oil IR objective lens [Bio-Rad, Hercules Calif.] as part of the W. M. Keck Center for Cellular Imaging, University of Virginia), subjected to a 488 nm argon laser light source with emission at 528 nm. Baseline monitoring was followed by addition of lacritin or deletion fragments in phenol red-free Hanks basic salt solution.
# [3] = tested on: human salivary ductal (HSG) cells; test: 3H-thymidine uptake mitogenesis assay; format: cell-based; conditions: 10 nM; compared to intact lacritin
# Experimental: as §1
# caspase-8 = test: Caspase-8 activity in human corneal epithelial cells treated with TNF-α; format: cell-based
# Experimental: FIG. 12 graphically illustrates the ability of lacritin polypeptides to block TNFα induced caspase-8 activity in human corneal epithelial cells. The ordinate represents relative fluorescence units. White bars indicate 1 hour and diagonally-hatched bars indicate 6 hours.
# (§2) Lacritin-induced proliferation and calcium signaling was studied in the human corneal epithelial (HCE) cell line. HCE cells were grown at 37° C. in DMEM F/12 supplemented with 10% FBS and 50 μg/ml gentamicin. Each experiment was done in a dose- and time-dependent manner using TNF-α (5-20 ng/ml) and lacritin (1-10 nM). Cell viability was measured spectrophotometrically at an absorbance of 570 nm using the MTT assay. Caspase-8 activity was detected fluorometrically by measuring cleavage of the fluorogenic substrate IETD-pNA at an excitation wavelength of 405 nm. Lacritin-induced cell proliferation was studied by H3-thymidine incorporation and via fluorescence-based detection of PKC, PLC and cAMP. Calcium signaling was detected by confocal microscopy of Fluo-4 loaded cells.
# [4] = tested on: human corneal epithelial (HCE) cell line; test: TNF-α-induced cell death in HCE cells (MTT cell viability); format: cell-based
# Experimental: as §2
# caspase-9 = test: Caspase-9 activity in human corneal epithelial cells treated with TNF-α; format: cell-based
# Experimental: FIG. 13 graphically illustrates the ability of lacritin polypeptides (10 nM) to block TNFα induced caspase-9 activity in human corneal epithelial cells. The ordinate represents relative fluorescence units. White bars indicate 6 hours and diagonally-hatched bars indicate 9 hours.
# Caspase-9 activity was measured in cells treated with various combinations of TNF-α, fragments of lacritin, and the PKC inhibitor Go6976. […] The PKC-α inhibitor Go6976 and C-25 fail to block this increase of the downstream initiator caspase-9.
molecule,measurement,setting,value
"CCCCCCCCCCCCCC(=O)O[C@@H]1[C@@H](C)[C@@]2(O)[C@@H](C=C(CO)C[C@]3(O)C(=O)C(C)=C[C@@H]23)[C@@H]2C(C)(C)[C@]12OC(C)=O [4β-phorbol 12-myristate 13-acetate, reference compound]",PKCα translocation,PKCα [1]; 15 min after treatment,concentrated PKCα solely in the plasma membrane
same,effect on PKCα phosphorylation,PKCα [2],hyperphosphorylation
O=C(O)CN(CCOCCOCCN(CC(=O)O)CC(=O)O)CC(=O)O [EGTA],effect on lacritin-dependent NFATC1 translocation,NFATC1,non-inhibitory
COc1ccc2c(c1)CC[C@@H]1[C@@H]2CC[C@]2(C)[C@@H](NCCCCCCN3C(=O)C=CC3=O)CC[C@@H]12 [U73122],effect on lacritin-dependent NFATC1 translocation,NFATC1,inhibited
same,effect on lacritin-dependent PKCα translocation,PKCα [1],inhibited
same,effect on lacritin-dependent PKCα dephosphorylation,PKCα [2],inhibited
same,effect on carbachol-stimulated calcium mobilization,"HSG cells; U73122 1 μM, Go 6976 1 μM, even at 10 μM",inhibited
same,effect on lacritin-stimulated calcium mobilization,"HSG cells; U73122 1 μM, Go 6976 1 μM",inhibited
COc1ccc2c(c1)CC[C@@H]1[C@@H]2CC[C@]2(C)[C@@H](NCCCCCCN3C(=O)CCC3=O)CC[C@@H]12 [U73343],effect on lacritin-dependent PKCα translocation,PKCα [1],full translocation and dephosphorylation
same,effect on lacritin-dependent PKCα dephosphorylation,PKCα [2],full translocation and dephosphorylation
C[N+](C)(C)CCOC(N)=O [carbachol],calcium mobilization after pertussis toxin preincubation,HSG cells; positive control replacing lacritin,full calcium mobilization
[Gd] [gadolinium],effect on lacritin-dependent NFATC1 translocation,NFATC1,non-inhibitory
C/C=C(/C)C(=O)O[C@H]1C(C)=C2[C@H]([C@@H]1OC(=O)CCCCCCC)[C@@](C)(OC(C)=O)C[C@H](OC(=O)CCC)[C@@]1(O)[C@H]2OC(=O)[C@@]1(C)O [thapsigargin],effect on lacritin-dependent NFATC1 translocation,NFATC1,inhibited
same,effect on lacritin-dependent PKCα translocation,PKCα [1],inhibited
C-59: deletion of the 59 carboxy terminal amino acids of mature lacritin (SEQ ID NO:10) (EDASSDSTGADPAQEAGTSKPNEEISGPAEPASPPETTTTAQETSAAAVQGTAKVTSSRQ; homo sapiens),mitogenic activity of deletion constructs,[3],inactive
TNF-α [reference compound],increase in caspase-8 activity,caspase-8; TNF-α alone,three-fold increase; also recorded: multifold increase
same,TNF-α-induced cell death,[4]; after 18 hr,32.2±2.6%
same,TNF-α-induced cell death,[4]; after 30 hr,73.7±10%
same,increase in caspase-9 activity,caspase-9; TNF-α alone,multifold increase
pertussis toxin,effect on lacritin-dependent NFATC1 translocation,NFATC1,inhibited
same,effect on lacritin-dependent PKCα translocation,PKCα [1],inhibited
same,effect on lacritin-dependent PKCα dephosphorylation,PKCα [2],inhibited
same,effect on lacritin-stimulated calcium mobilization,"HSG cells; U73122 1 μM, Go 6976 1 μM",completely inhibited
B1,effect on TNF-α-induced caspase-8 activity,caspase-8,blocked
same,effect on TNF-α-induced caspase-9 activity,caspase-9; lacritin polypeptides 10 nM,blocked
same,mitogenic activity of deletion constructs,[3],active
B2,mitogenic activity of deletion constructs,[3],completely abrogated activity; also recorded: inactive
B3,mitogenic activity of deletion constructs,[3],diminished; also recorded: partially active
